Test results taken from ChEMBL document CHEMBL1201862, “PubChem BioAssay data set” (2004).
Calls of active or inactive are those of the source.

Legend:
[1] = biological target: Delta-type opioid receptor (Homo sapiens, UniProt P41143); assay: Counterscreen for agonists of heterodimerization of the mu 1 (OPRM1) and delta 1 (OPRD1) opioid receptors: Luminescence-based cell-based high throughput dose response assay to identify agonists of OPRD1 homodimerization. [Related pubchem assays (depositor defined):AID504326, AID504355, AID504692, AID504904, AID504905]; type: functional
Chain of Delta-type opioid receptor (P41143 whole entry): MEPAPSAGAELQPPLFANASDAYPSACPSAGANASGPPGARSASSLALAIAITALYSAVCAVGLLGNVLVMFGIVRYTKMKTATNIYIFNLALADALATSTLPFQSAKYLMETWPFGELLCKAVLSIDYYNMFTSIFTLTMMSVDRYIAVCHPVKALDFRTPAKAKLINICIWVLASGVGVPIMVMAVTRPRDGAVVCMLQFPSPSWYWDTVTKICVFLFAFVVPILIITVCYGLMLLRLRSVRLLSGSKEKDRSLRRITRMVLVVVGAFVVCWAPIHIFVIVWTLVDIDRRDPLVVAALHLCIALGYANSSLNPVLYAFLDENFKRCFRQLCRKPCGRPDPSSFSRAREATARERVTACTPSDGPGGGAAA

[2] = biological target: 5-hydroxytryptamine receptor 5A (Homo sapiens, UniProt P47898); assay: Counterscreen for agonists of OPRM1-OPRD1 heterodimerization: luminescence-based cell-based high throughput dose response assay to identify agonists of 5-hydroxytryptamine (serotonin) 5A receptor (HTR5A). [Related pubchem assays (depositor defined):AID504326, AID504355, AID504692, AID504904, AID504905]; type: functional
Chain of 5-hydroxytryptamine receptor 5A (P47898 whole entry): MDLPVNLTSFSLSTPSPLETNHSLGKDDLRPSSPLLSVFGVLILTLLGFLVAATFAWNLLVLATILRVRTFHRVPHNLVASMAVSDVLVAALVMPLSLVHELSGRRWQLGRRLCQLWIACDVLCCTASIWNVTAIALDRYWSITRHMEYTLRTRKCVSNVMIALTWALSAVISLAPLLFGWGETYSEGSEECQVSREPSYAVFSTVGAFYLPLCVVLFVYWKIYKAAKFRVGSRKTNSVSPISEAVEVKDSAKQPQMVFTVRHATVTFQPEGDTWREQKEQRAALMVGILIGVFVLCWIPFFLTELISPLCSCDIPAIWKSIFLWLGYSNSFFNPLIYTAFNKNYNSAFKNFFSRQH

Mu-type opioid receptor = Mu-type opioid receptor (Homo sapiens, UniProt P35372); assay: Counterscreen for agonists of heterodimerization of the mu 1 (OPRM1) and delta 1 (OPRD1) opioid receptors: Luminescence-based cell-based high throughput dose response assay to identify agonists of OPRM1 homodimerization.; type: functional;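 further: U2OS cells expressing OPRM1 and beta-arrestin as split beta-galactosidase partners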
Chain of Mu-type opioid receptor (P35372 whole entry): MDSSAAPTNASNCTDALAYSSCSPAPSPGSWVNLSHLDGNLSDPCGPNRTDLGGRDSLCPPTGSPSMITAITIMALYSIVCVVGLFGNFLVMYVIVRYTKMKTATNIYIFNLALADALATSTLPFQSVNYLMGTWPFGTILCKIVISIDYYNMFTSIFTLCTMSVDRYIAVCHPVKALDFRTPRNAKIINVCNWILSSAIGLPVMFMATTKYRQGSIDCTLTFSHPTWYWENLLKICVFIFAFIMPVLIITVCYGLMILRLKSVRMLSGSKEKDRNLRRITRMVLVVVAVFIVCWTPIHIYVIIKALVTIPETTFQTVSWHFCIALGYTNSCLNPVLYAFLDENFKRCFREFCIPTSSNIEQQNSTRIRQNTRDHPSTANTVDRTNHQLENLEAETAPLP

[3] = viability loss in HepG2 hepatoma cells – cell-based, ATP luminescence, cherry-pick, activator set 2, cytotoxicity control, dose response (AID 1053143); type: functional
Vero [4] = assay: cells; type: functional; conditions: Chlorocebus sabaeus
Vero [5] = assay: cells; type: functional, cell-based; conditions: Chlorocebus sabaeus
[6] = biological target: ATP-dependent molecular chaperone HSP82 (Candida albicans (strain WO-1) (Yeast), UniProt C4YTQ8); assay: steroid-induced GRE reporter decrease in yeast – S. cerevisiae, luminescence, Hsp90 inhibitor project, dose response (AID 2400); type: functional, cell-based;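 further: beta-galactosidase luminescence from glucocorticoid response element reporter as proxy for Hsp90 function; inhibitor potency where signal loss means Hsp90 inhibition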
Chain of ATP-dependent molecular chaperone HSP82 (C4YTQ8 whole entry): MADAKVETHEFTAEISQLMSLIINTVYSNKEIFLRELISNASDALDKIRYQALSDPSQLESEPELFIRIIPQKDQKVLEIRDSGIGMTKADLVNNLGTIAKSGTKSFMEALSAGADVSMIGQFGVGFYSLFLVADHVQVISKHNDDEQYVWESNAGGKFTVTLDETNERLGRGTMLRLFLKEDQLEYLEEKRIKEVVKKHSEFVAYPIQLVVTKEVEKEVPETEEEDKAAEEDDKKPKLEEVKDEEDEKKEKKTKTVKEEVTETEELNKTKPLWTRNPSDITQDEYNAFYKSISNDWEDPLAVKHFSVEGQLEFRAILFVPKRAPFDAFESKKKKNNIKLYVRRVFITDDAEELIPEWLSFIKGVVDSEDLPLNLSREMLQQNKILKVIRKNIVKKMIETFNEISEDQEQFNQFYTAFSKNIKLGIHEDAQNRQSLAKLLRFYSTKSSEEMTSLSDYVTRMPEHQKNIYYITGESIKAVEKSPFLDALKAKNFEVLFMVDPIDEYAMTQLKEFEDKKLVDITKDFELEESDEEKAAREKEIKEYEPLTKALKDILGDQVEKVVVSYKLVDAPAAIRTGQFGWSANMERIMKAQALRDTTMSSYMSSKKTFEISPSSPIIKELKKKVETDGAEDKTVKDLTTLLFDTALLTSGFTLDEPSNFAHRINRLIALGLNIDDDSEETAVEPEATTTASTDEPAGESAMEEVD

[7] = biological target: T1, Serine/threonine-protein phosphatase (Candida dubliniensis (strain CD36 / CBS 7987 / NCPF 3949 / NRRLY-17841) (Yeast), UniProt B9W6M3); assay: blockers of CaCl2-induced CDRE-lacZ signaling – S. cerevisiae, luminescence, secondary, dose response (AID 2388); type: functional, cell-based;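 further: yeast reporter cells carrying a calcineurin-responsive lacZ construct stimulated with calcium chloride; luminescent beta-galactosidase reporter signal in whole cells rather than isolated phosphatase activity; potency for inhibition where a drop in reporter signal means calcineurin blockade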
T1 sequence (B9W6M3 whole entry): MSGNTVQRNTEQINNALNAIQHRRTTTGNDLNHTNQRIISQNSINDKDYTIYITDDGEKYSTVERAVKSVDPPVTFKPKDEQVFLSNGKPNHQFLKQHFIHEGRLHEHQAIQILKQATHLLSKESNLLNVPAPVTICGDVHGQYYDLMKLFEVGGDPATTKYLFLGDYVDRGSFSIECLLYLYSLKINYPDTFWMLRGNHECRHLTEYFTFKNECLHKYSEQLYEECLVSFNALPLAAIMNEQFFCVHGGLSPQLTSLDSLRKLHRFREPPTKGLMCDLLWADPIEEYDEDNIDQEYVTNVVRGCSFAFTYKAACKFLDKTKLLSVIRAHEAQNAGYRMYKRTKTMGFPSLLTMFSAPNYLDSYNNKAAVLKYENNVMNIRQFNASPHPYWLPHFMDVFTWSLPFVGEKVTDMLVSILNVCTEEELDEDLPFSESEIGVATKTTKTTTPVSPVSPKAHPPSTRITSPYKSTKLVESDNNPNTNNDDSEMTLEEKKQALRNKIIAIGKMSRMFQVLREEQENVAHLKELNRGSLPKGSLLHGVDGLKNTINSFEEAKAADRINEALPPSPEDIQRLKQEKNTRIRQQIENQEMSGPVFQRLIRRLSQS

[8] = biological target: T2, Histone-lysine N-methyltransferase NSD2 (Homo sapiens, UniProt O96028); type: biochemical
T2 sequence (O96028 whole entry): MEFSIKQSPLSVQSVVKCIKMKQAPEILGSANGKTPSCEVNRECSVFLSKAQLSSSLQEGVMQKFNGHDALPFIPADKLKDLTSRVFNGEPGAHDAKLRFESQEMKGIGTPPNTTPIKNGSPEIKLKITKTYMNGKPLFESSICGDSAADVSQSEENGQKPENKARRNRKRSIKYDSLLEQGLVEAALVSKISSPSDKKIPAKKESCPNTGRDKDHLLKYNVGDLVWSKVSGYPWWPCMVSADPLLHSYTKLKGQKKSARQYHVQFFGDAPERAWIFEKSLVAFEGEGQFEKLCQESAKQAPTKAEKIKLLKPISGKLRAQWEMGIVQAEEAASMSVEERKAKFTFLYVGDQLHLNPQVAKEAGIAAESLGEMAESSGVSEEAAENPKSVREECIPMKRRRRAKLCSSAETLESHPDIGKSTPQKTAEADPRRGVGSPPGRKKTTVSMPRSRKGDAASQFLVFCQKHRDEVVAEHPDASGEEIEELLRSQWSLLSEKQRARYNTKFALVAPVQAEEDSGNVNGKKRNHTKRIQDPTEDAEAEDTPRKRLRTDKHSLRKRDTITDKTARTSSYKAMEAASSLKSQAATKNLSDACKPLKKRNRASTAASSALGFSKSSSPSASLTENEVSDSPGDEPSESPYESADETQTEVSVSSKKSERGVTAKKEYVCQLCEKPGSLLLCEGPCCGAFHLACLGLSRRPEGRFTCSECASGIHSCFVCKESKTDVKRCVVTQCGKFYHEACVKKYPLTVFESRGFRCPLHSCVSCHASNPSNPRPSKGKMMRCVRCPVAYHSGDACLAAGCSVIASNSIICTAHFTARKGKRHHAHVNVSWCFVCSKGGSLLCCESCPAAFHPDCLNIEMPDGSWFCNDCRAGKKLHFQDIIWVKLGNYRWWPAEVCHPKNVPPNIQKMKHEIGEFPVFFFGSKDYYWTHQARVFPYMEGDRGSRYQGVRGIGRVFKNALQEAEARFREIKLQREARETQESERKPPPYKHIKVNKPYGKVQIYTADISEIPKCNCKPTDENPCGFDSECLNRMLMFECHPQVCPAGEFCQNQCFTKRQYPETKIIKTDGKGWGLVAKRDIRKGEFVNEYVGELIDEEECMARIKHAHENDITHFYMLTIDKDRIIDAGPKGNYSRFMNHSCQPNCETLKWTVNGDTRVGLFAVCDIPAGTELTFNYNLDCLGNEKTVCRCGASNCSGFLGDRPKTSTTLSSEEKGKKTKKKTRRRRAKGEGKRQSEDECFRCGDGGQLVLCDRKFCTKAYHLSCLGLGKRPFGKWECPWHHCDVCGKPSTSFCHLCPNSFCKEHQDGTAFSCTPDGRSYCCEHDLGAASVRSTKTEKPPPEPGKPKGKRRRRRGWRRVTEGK

[9] = NIH-3T3 fibroblast cytotoxicity, dose response, cytotoxicity control, cell-based, fluorescence, Alamar Blue, secondary assay (AID 2327); type: functional;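 further: NIH-3T3 mouse fibroblasts cultured with fluconazole at 8 µg/mL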
[10] = fluconazole-exposed Candida albicans growth modulators – fluorescence, retest, confirmation (AID 2467); type: functional, cell-based
A-375 = assay: proliferation inhibition in MITF-low A375 cells – cell-based, cherry-pick samples, set 2, counter-screen for MITF modulator project, dose response (AID 540335); type: functional; conditions: Homo sapiens
[11] = biological target: T3, Microphthalmia-associated transcription factor (Homo sapiens, UniProt O75030); assay: reducers of TRPM1 reporter luminescence, concentration series – cell-based, SK-MEL-5, cherry-picked, set 3, MITF inhibitor project, dose response (AID 493073); type: functional;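 further: SK-MEL-5 melanoma cells with luciferase driven by the MITF target TRPM1 promoter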
T3 sequence (O75030 whole entry): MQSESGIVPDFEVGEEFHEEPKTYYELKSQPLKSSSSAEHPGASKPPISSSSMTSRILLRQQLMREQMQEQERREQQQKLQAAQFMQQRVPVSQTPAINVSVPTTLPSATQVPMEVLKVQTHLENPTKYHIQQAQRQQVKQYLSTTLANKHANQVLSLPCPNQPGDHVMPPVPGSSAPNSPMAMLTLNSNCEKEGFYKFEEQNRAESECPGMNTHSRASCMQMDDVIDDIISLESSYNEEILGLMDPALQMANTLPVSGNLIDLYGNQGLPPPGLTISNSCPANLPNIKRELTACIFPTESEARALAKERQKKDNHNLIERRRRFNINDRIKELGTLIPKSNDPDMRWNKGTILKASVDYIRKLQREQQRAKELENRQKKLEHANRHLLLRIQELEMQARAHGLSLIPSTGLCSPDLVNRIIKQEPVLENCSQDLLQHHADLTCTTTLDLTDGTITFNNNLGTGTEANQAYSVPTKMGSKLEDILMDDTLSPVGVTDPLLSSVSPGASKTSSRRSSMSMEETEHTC

CAAX prenyl protease 2 [12] = biological target: T4, CAAX prenyl protease 2 (Saccharomyces cerevisiae S288c, UniProt Q03530); type: biochemical
T4 sequence (Q03530 whole entry): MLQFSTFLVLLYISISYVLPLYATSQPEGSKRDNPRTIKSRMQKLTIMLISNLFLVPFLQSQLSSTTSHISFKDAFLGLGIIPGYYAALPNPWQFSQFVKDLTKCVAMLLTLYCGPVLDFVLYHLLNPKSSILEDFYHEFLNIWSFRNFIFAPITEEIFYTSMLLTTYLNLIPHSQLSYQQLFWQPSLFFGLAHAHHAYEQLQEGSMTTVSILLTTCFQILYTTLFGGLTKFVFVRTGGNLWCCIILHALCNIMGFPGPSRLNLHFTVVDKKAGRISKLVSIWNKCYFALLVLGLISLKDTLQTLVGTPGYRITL

CAAX prenyl protease 2 [13] = biological target: CAAX prenyl protease 2 (Homo sapiens, UniProt Q9Y256); assay: inhibition of Ras-converting CAAX protease Rce1 – biochemical, yeast membranes, quenched-peptide fluorescence, cherry-pick, dose response (AID 588849)
Chain of CAAX prenyl protease 2 (Homo sapiens, UniProt Q9Y256) (Q9Y256 whole entry): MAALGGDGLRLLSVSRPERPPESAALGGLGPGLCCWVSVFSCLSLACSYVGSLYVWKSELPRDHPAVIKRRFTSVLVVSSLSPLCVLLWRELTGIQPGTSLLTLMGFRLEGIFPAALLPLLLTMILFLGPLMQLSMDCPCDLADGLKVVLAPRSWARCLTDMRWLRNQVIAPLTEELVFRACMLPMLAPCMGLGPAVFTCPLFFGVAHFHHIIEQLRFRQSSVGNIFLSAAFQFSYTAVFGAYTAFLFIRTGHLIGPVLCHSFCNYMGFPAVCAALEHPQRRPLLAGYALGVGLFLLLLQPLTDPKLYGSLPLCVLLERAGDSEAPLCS

For `CN1CCN(c2ccc(NC(=O)c3ccc(-c4ccccc4F)o3)cc2)CC1`, the EC50 [1] was 32.6 µM (inactive), the EC50 [2] was > 92.5 µM (inactive) and the EC50 (Mu-type opioid receptor) was 26.3 µM (inactive). The AC50 [3] was 26 µM (active), the CC50 (Vero [4]) was > 25 µM (active) and the IC50 (Vero [5]) was 24.8 µM (active).
In the case of `COc1ccc(OC)c(/C=C2\SC(=S)N(NS(=O)(=O)c3ccc(C)cc3)C2=O)c1`, the EC50 [6] was 5.2 µM (active), the EC50 [7] was > 180 µM (inactive) and the AC50 [8] was 15.9 µM (active). The EC50 [9] was > 150 µM (inactive) and the EC50 [10] was 0.832 µM (active).
In the case of `CC(C)Oc1ccc(C(CCNCc2ccc(O)cc2)c2ccccc2)cc1` (stereo not given), the AC50 (A-375) was 18.8 µM (active) and the AC50 [11] was 12.8 µM (active).
For `COc1ccc(-c2c(C)oc3c(CN4CCN(C)CC4)c(O)ccc3c2=O)cc1`, the AC50 (CAAX prenyl protease 2 [12]) was 28.6 µM (active) and the AC50 (CAAX prenyl protease 2 [13]) was 3.72 µM (active).
